Converted amounts (≈) assume the structure as drawn. The source made the active and inactive calls. No cut-off for these calls is given here.
Columns and labels:
[1] = Selectivity index, ratio of TC50 for uninfected human C8166 cells to EC50 for HIV1 MN infected in human C8166 cells; assay type: toxicity, cell-based; details: uninfected C8166 cells and HIV-1 MN-infected C8166 cells, read-out: Selectivity Index
[2] = Cytotoxicity against uninfected human C8166 cells by XTT-formazan method; assay type: cell-based; details: read-out: TC50 (the source's name)
[3] = test system: Human immunodeficiency virus 1; test: Antiviral activity against HIV1 3B infected in human C8166 cells assessed as syncytia formation at 5 fold EC50 preincubated for 5 to 6 days before infection measured after 2 days postinfection by XTT-formazan method; assay type: functional, organism-based
[4] = test system: Human immunodeficiency virus 1; test: Antiviral activity against HIV1 MN infected in human C8166 cells assessed as reduction in antigen gp120 production by ELISA; assay type: functional, organism-based; details: Human immunodeficiency virus 1, MN

| EC50 [4] | SMILES | selectivity ratio [1] | CC50 [2] | Activity [3] |
| --- | --- | --- | --- | --- |
| 18 µg/mL (≈ 30.2 µM) | COc1cc(O[C@@H]2O[C@H](CO[C@@H]3OC[C@H](O)[C@H](O)[C@H]3O)[C@@H](O)[C@H](O)[C@H]2O)c2c(O)c3c(=O)oc(C)cc3c(OC)c2c1 | 8.9 | 160 µg/mL (≈ 268 µM) | inactive |
| 75 µg/mL (≈ 120 µM) | COc1cc(O[C@@H]2O[C@H](CO[C@@H]3O[C@H](CO)[C@@H](O)[C@H](O)[C@H]3O)[C@@H](O)[C@H](O)[C@H]2O)c2c(O)c3c(=O)oc(C)cc3c(OC)c2c1 | 2 | 150 µg/mL (≈ 239 µM) | inactive |
| 30 µg/mL (≈ 49.1 µM) | COc1cc(O[C@@H]2O[C@H](CO[C@@H]3O[C@@H](C)[C@H](O)[C@@H](O)[C@H]3O)[C@@H](O)[C@H](O)[C@H]2O)c2c(O)c3c(=O)oc(C)cc3c(OC)c2c1 | 3.3 | 100 µg/mL (≈ 164 µM) | inactive |
| 38 µg/mL (≈ 81.8 µM) | COc1cc(O[C@@H]2O[C@H](CO)[C@@H](O)[C@H](O)[C@H]2O)c2c(O)c3c(=O)oc(C)cc3c(OC)c2c1 | 4.2 | 160 µg/mL (≈ 345 µM) | inactive |
| 0.016 µg/mL (≈ 0.0599 µM) | Cc1cn([C@H]2C[C@H](N=[N+]=[N-])[C@@H](CO)O2)c(=O)[nH]c1=O [ZIDOVUDINE] | – | > 1000 µg/mL | – |
